The values below come from patent US20240279241A1, “PYRIDO[4,3-D]PYRIMIDINE COMPOUNDS CAPABLE OF INHIBITING KRAS MUTANT PROTEINS” (Redx Pharma PLC, priority 2021, published 2024).

Assay [1] has as its target T1, KRAS G12D (Homo sapiens, UniProt P01116, G12D).
T1 construct: Recombinant human RAS protein (2 nM)
Kind of assay: HTRF nucleotide exchange assay (NEA), KRAS G12D. To be noted: recombinant human KRAS G12D aa1-188, 2 nM; lowest class = % inhibition at 10 μM. The format is biochemical. The method, then:
(§1) The capacity of compounds to bind KRAS G12D, other KRAS mutants and wildtype RAS isoforms was quantified using a HTRF nucleotide exchange assay. Recombinant human RAS protein (2 nM; aa1-188 KRAS WT, HRAS WT, NRAS WT, or KRAS containing the containing the G12D, G13D or Q61H amino acid substitutions, or 4 nM KRAS; aa1-188 containing the G12V, G12C, G12A or G12S amino acid substitution, an N-terminal 6×His-tag and leader sequence), and 2 nM Europium-labeled anti-6×His antibody were mixed in assay buffer (10 mM HEPES pH7.3, 150 mM NaCl, 5 mM MgCl2, 0.05% BSA, 0.0025% NP-40 and 100 mM KF) with various concentrations of compound in a 384-well plate and a volume of 5 uL. After a 60-minute incubation at room temperature, 5 ul of 200 nM EDA-GTP-DY647P1 (diluted in assay buffer) was added to the plate. Following 30-minute incubation at room temperature, time-resolved fluorescence was measured on a PerkinElmer Envision plate reader. DMSO (0.3%) and unlabeled […] (1 μM) or equivalent tool compound were used to generate the Max and Min assay signals, respectively. Data was analysed using a four-parameter logistic model to calculate IC50 values, with at least two independent replicates were performed for each compound.
In general terms: Time-resolved FRET reads energy transfer from a long-lived donor to a nearby acceptor.

The target in assay [2] is T2, KRAS WT (Homo sapiens, UniProt P01116).
T2 construct: Recombinant human RAS protein (2 nM); aa1-188 KRAS WT
T2 sequence (P01116 1-188 isoform P01116-2): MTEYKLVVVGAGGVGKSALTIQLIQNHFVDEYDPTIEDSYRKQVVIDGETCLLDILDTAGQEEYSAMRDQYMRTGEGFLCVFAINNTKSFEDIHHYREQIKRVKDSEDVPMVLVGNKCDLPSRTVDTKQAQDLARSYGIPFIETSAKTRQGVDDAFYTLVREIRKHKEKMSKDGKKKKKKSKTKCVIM
In words: HTRF nucleotide exchange assay (NEA), KRAS WT. It counts as biochemical. As to the method:
as §1

pIC50: −log10 of the molar value.

T1 sequence (P01116 1-188 isoform P01116-2 G12D): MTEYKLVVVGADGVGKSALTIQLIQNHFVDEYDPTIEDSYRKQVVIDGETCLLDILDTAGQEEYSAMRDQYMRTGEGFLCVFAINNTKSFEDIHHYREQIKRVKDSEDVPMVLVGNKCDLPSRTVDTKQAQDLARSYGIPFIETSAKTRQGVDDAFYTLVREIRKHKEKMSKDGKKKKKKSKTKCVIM

For `Oc1cc(-c2ncc3c(N4CC5(CCCOC5)C4)nc(OCC45CCCN4CCC5)nc3c2F)c2ccccc2c1` [Example 53, 4-[8-fluoro-2-(1,2,3,5,6,7-hexahydropyrrolizin-8-ylmethoxy)-4-(6-oxa-2-azaspiro[3.5]nonan-2-yl)pyrido[4,3-d]pyrimidin-7-yl]naphthalen-2-ol], the pIC50 in assay [1] and in assay [2] was 5.00 to 7.00 in each case.

With `Oc1cc(-c2ncc3c(N4CC5COCC(C5)C4)nc(OCC45CCCN4CCC5)nc3c2F)c2ccccc2c1` [Example 49, 4-[8-fluoro-2-(1,2,3,5,6,7-hexahydropyrrolizin-8-ylmethoxy)-4-(3-oxa-7-azabicyclo[3.3.1]nonan-7-yl)pyrido[4,3-d]pyrimidin-7-yl]naphthalen-2-ol], the pIC50 in assay [1] and in assay [2] was 5.00 to 7.00 throughout.

For the molecule `CC1(C#N)CCN(c2nc(OCC34CCCN3CCC4)nc3c(F)c(-c4cc(O)cc5ccccc45)ncc23)CC1` [Example 63, 1-[8-fluoro-2-(1,2,3,5,6,7-hexahydropyrrolizin-8-ylmethoxy)-7-(3-hydroxy-1-naphthyl)pyrido[4,3-d]pyrimidin-4-yl]-4-methyl-piperidine-4-carbonitrile], the pIC50 in assay [1] and in assay [2] was 5.00 to 7.00 in each case.

Take `Nc1nc2c(-c3ncc4c(N5CCCOCC5)nc(OCC56CCCN5CCC6)nc4c3F)cccc2s1` [Example 93, 4-[8-fluoro-2-(1,2,3,5,6,7-hexahydropyrrolizin-8-ylmethoxy)-4-(1,4-oxazepan-4-yl)pyrido[4,3-d]pyrimidin-7-yl]-1,3-benzothiazol-2-amine]: the pIC50 in assay [1] and in assay [2] was 5.00 to 7.00 throughout.

As for `OCCCNc1nc(OCC23CCCN2CCC3)nc2c(F)c(-c3cc(O)cc4ccccc34)ncc12` [Example 39, 4-[8-fluoro-2-(1,2,3,5,6,7-hexahydropyrrolizin-8-ylmethoxy)-4-(3-hydroxypropylamino)pyrido[4,3-d]pyrimidin-7-yl]naphthalen-2-ol], the negative logarithm of the IC50 (pIC50) in assay [1] and in assay [2] was 5.00 to 7.00 throughout.

As for `CN(c1nc(OCC23CCCN2CCC3)nc2c(F)c(-c3cc(O)cc4ccccc34)ncc12)C1CCOCC1` [Example 23, 4-[8-fluoro-2-(1,2,3,5,6,7-hexahydropyrrolizin-8-ylmethoxy)-4-[methyl(tetrahydro-pyran-4-yl)amino]pyrido[4,3-d]pyrimidin-7-yl]naphthalen-2-ol], the pIC50 in assay [1] and in assay [2] was 5.00 to 7.00 each time.

On to `Oc1cc(-c2ncc3c(N4CC5CC4CC5O)nc(OCC45CCCN4CCC5)nc3c2F)c2ccccc2c1` (centres unmarked) [Example 66, 2-[8-fluoro-2-(1,2,3,5,6,7-hexahydropyrrolizin-8-ylmethoxy)-7-(3-hydroxy-1-naphthyl)pyrido[4,3-d]pyrimidin-4-yl]-2-azabicyclo[2.2.1] heptan-5-ol], for which the negative-log IC50 (pIC50) in assay [1] and in assay [2] was 5.00 to 7.00 each time.

As for `COC(C)(C)CCNc1nc(OCC23CCCN2CCC3)nc2c(F)c(-c3cc(O)cc4ccccc34)ncc12` [Example 54, 4-[8-fluoro-2-(1,2,3,5,6,7-hexahydropyrrolizin-8-ylmethoxy)-4-[(3-methoxy-3-methyl-butyl)amino]pyrido [4,3-d]pyrimidin-7-yl]naphthalen-2-ol], the pIC50 in assay [1] and in assay [2] was 5.00 to 7.00 each time.

Turning to `Nc1nc2c(-c3ncc4c(N5CCCOCC5)nc(OC[C@@]56CCCN5C[C@H](F)C6)nc4c3F)cccc2s1` (relative stereo) [Example 94, 4-[8-fluoro-4-(1,4-oxazepan-4-yl)-2-[[trans-2-fluoro-1,2,3,5,6,7-hexahydropyrrolizin-8-yl]methoxy]pyrido[4,3-d]pyrimidin-7-yl]-1,3-benzothiazol-2-amine], the pIC50 in assay [1] and in assay [2] was 5.00 to 7.00 in each case.

For `Oc1cc(-c2ncc3c(N4CCn5ccnc5C4)nc(OCC45CCCN4CCC5)nc3c2F)c2ccccc2c1` [Example 60, 4-[4-(6,8-dihydro-5H-imidazo[1,2-a]pyrazin-7-yl)-8-fluoro-2-(1,2,3,5,6,7-hexahydropyrrolizin-8-ylmethoxy)pyrido [4,3-d]pyrimidin-7-yl]naphthalen-2-ol], the pIC50 in assay [1] and in assay [2] was 5.00 to 7.00 in each case.
